US10723741B1, “DNA polymerase IIIC inhibitors and use thereof” (Acurx Pharmaceuticals, LLC, priority 2018, dated 2020)
Values after ≈ are worked out from the molar mass of the structure shown.

Legend:
Type in all cases: cell-based
[1] = tested on: Streptococcus pneumoniae ATCC 49619; assay: Broth microdilution MIC, S. pneumoniae ATCC 49619; conditions: ATCC49619, broth microdilution, 37° C., 20 hours, read-out: MIC S. pneumoniae ATCC 49619
Excerpt: (§1) Bacteria tested are Staphylococcus aureus NRS384 (a methicillin-resistant Staphylococcus aureus, MRSA), Staphylococcus aureus ATCC 29213 (a methicillin-sensitive Staphylococcus aureus, MSSA), Streptococcus pneumoniae ATCC 49619, Enterococcus faecalis ATCC 29212, Enterococcus faecium ATCC 700221 (a vancomycin-resistant enterococcus, VRE), Bacillus subtilis ATCC 6633, and Escherichia coli ATCC 25922.
(§2) Staphylococcus aureus NRS384 was obtained from NARSA (Network on Antimicrobial Resistance in Staphylococcus aureus, now the strain collection is in BEI resources). Other bacterial isolates were from ATCC (The American Type Culture Collection). Upon receiving the bacteria samples from aforementioned institutes, the bacteria were cultured according to the manuals provided by the suppliers. The bacteria were stored in 25% glycerol (final concentration) at −80° C.
(§3) On the day of testing, the compounds were dissolved in pure DMSO (Sigma 276855-1L) to […] as stock. In a v-bottom 96-well plate (Axygen-wipp02280), 20 μl DMSO was added into well 2 to well 12 by manual pipetting. Into well 1, 12.8 μL of compound DMSO stock (20 mg/ml) was added and mixed with 27.2 μl DMSO by pipetting. Two fold serial dilutions were performed by transferring and mixing 20 μl of solution from well 1 to well 2, then well 2 to well 3 and so forth until well 11. The well 12 was loaded with 20 μl DMSO without compounds. This was drug ‘mother plate’. From well 1 to well 12, the drug concentrations in the mother plate were […] in DMSO. A multi-pipette was used to perform the serial dilutions. The concentration may be adjusted according to the potency of the compounds. An Echo® Acoustic liquid handling system may be used to replace manual pipetting to make the daughter plates.
(§4) One day prior to the day of MIC testing, bacterial strains were streaked out from −80° C. glycerol stocks onto MHA plates and incubated at 37° C. for 20 hours. Streptococcus pneumoniae was streaked on blood agar and incubated at 37° C. in 5% CO2. The single colonies were picked by using an inoculation loop (Greiner-731175) and suspended into 5 ml sterile saline. The turbidity of the suspension was adjusted to 0.10 (Siemens MicroScan turbidity meter), equal to ˜1.0×10^8 cfu/ml. The bacterial suspension was diluted 200× in corresponding test medium (Table 1). This was used to inoculate daughter plates.
(§5) For preparing u-bottom 96-well ‘daughter plates’ (Costar 3788), an aliquot of 1 μl solution from mother plate was then replicating transferred into the daughter plate using a multi-pipette.
(§6) An aliquot of 99 μl of the bacterial suspension was inoculated into each well of the daughter plates using a multi-pipette. Each well contained ˜5.0×10^5 cfu/ml bacteria, 1% DMSO and serially diluted compounds at 64, 32, 16, 8, 4, 2, 1, 0.5, 0.25, 0.125, 0.0625 and 0 μg/ml from well 1 to well 12 respectively, in 100 μl corresponding test medium.
(§7) The plates were incubated in ambient atmosphere and in a 37° C. incubator for 20 hours.
(§8) Compounds of the present invention were tested for antibacterial activity against a variety of bacterial organism including Bacillus subtilis, Staphylococcus aureus, Enterococcus faecalis, Enterococcus faecium, Streptococcus pneumoniae and Escherichia coli. […] Compounds described in Examples 2, 44, 53, 56, 90, 134, 212, 213, 214, 218, 222, 304, 305, and 307 had MIC of ≤1 μg/ml against S. aureus NRS 384 (MRSA) (μg/ml) and E. faecium ATCC 700221 (VRE) (μg/ml).

[2] = tested on: Escherichia coli ATCC 25922; assay: Broth microdilution MIC, E. coli ATCC 25922 (MHIIB w & w/o 4 mM EDTA); conditions: broth microdilution, 37° C., 20 hours; for MIC: Escherichia coli, ATCC25922, without EDTA, read-out: MIC E. coli ATCC 25922; for MIC E. coli ATCC 25922 + 4 mM EDTA: with 4 mM EDTA
Excerpt: as §1, §2, §3, §4, §5, §6, §7, §8

[3] = tested on: Staphylococcus aureus NRS384 (MRSA); assay: Broth microdilution MIC, S. aureus NRS384 (MRSA); parameters: MIC NRS 384 (MRSA): unit not given here; conditions: broth microdilution, 37° C., 20 hours; for MIC: Staphylococcus aureus, read-out: MIC NRS 384 (MRSA)
Excerpt: as §1, §2, §3, §4, §5, §6, §7, §8

[4] = tested on: Enterococcus faecalis ATCC 29212; assay: Broth microdilution MIC, E. faecalis ATCC 29212; conditions: ATCC29212, broth microdilution, 37° C., 20 hours, read-out: MIC E. faecalis ATCC 29212
Excerpt: as §1, §2, §3, §4, §5, §6, §7, §8

[5] = tested on: Enterococcus faecium ATCC 700221 (VRE); assay: Broth microdilution MIC, E. faecium ATCC 700221 (VRE); parameters: MIC E. faecium ATCC 700221 (VRE): unit: ug/mL; conditions: broth microdilution, 37° C., 20 hours; for MIC: Enterococcus faecium, read-out: MIC E. faecium ATCC 700221 (VRE)
Excerpt: as §1, §2, §3, §4, §5, §6, §7, §8

[6] = tested on: Bacillus subtilis ATCC 6633; assay: Broth microdilution MIC, B. subtilis ATCC 6633; conditions: ATCC6633, broth microdilution, 37° C., 20 hours, read-out: MIC B. subtilis ATCC 6633
Excerpt: as §1, §2, §3, §4, §5, §6, §7, §8

[7] = tested on: Staphylococcus aureus ATCC 29213 (MSSA); assay: Broth microdilution MIC, S. aureus ATCC 29213 (MSSA); conditions: broth microdilution, 37° C., 20 hours, read-out: MIC S. aureus ATCC 29213 (MSSA)
Excerpt: as §1, §2, §3, §4, §5, §6, §7, §8

SMILES	MIC [1]	MIC [2]	MIC E. coli ATCC 25922 + 4 mM EDTA [2]	MIC [3]	MIC [4]	MIC [5]	MIC [6]	MIC [7]	MIC NRS 384 (MRSA) [3]	MIC E. faecium ATCC 700221 (VRE) [5]
COc1cc(CNc2nc3cnn(C)c3c(=O)[nH]2)ccc1Cl [Compound 34, 5-((4-Chloro-3-methoxybenzyl)amino)-1-methyl-1H-pyrazolo[4,3-d]pyrimidin-7(6H)-one]	64 µg/mL (≈ 200 µM)	> 64 µg/mL	>64 µg/mL	> 64 µg/mL	> 64 µg/mL	> 64 µg/mL	> 64 µg/mL	> 64 µg/mL		
Cc1cc(CNc2nc3cnn(C)c3c(=O)[nH]2)ccc1Cl [Compound 35, 5-((4-Chloro-3-methylbenzyl)amino)-1-methyl-1H-pyrazolo[4,3-d]pyrimidin-7(6H)-one]	4 µg/mL (≈ 13.2 µM)	> 64 µg/mL	>64 µg/mL	2 µg/mL (≈ 6.58 µM)	8 µg/mL (≈ 26.3 µM)	4 µg/mL (≈ 13.2 µM)	2 µg/mL (≈ 6.58 µM)	4 µg/mL (≈ 13.2 µM)		
Cn1ncc2nc(NCc3cc(Cl)c(Cl)cn3)[nH]c(=O)c21.O=C(O)C(F)(F)F [Compound 36, 5-(((4,5-Dichloropyridin-2-yl)methyl)amino)-1-methyl-1H-pyrazolo[4,3-d]pyrimidin-7(6H)-one-2,2,2-trifluoroacetate]	> 64 µg/mL	> 64 µg/mL	>64 µg/mL	> 64 µg/mL	> 64 µg/mL	> 64 µg/mL	> 64 µg/mL	> 64 µg/mL		
Cn1ncc2nc(NCc3nc(Cl)c(Cl)[nH]3)[nH]c(=O)c21 [Compound 37, 5-(((4,5-Dichloro-1H-imidazol-2-yl)methyl)amino)-1-methyl-1H-pyrazolo[4,3-d]pyrimidin-7(6H)-one]	> 64 µg/mL	> 64 µg/mL	>64 µg/mL	> 64 µg/mL	> 64 µg/mL	> 64 µg/mL	> 64 µg/mL	> 64 µg/mL		
CCc1[nH]c(CNc2nc3cnn(C)c3c(=O)[nH]2)nc1Cl.Cl [Compound 38, 5-(((4-Chloro-5-ethyl-1H-imidazol-2-yl)methyl)amino)-1-methyl-1H-pyrazolo[4,3-d]pyrimidin-7(6H)-one hydrochloride]	> 64 µg/mL	> 64 µg/mL	>64 µg/mL	> 64 µg/mL	> 64 µg/mL	> 64 µg/mL	> 64 µg/mL	> 64 µg/mL		
Cn1ncc2nc(Nc3ccc4c(c3)COC4)[nH]c(=O)c21 [Compound 39, 5-((1,3-Dihydroisobenzofuran-5-yl)amino)-1-methyl-1H-pyrazolo[4,3-d]pyrimidin-7(6H)-one]	> 64 µg/mL	> 64 µg/mL	>64 µg/mL	> 64 µg/mL	> 64 µg/mL	> 64 µg/mL	> 64 µg/mL	> 64 µg/mL		
COC(=O)c1nn(C)c2c(=O)[nH]c(NCc3ccc(Cl)c(Cl)c3)nc12 [Compound 40, Methyl 5-((3,4-dichlorobenzyl)amino)-1-methyl-7-oxo-6,7-dihydro-1H-pyrazolo[4,3-d]pyrimidine-3-carboxylate]	> 64 µg/mL	> 64 µg/mL	>64 µg/mL	> 64 µg/mL	> 64 µg/mL	> 64 µg/mL	> 64 µg/mL	> 64 µg/mL		
Cn1nc(C(=O)O)c2nc(NCc3ccc(Cl)c(Cl)c3)[nH]c(=O)c21 [Compound 41, 5-((3,4-dichlorobenzyl)amino)-1-methyl-7-oxo-6,7-dihydro-1H-pyrazolo[4,3-d]pyrimidine-3-carboxylic acid]	> 64 µg/mL	> 64 µg/mL	>64. ug/ml	> 64 µg/mL	> 64 µg/mL	> 64 µg/mL	> 64 µg/mL	> 64 µg/mL		
CNC(=O)c1nn(C)c2c(=O)[nH]c(NCc3ccc(Cl)c(Cl)c3)nc12 [Compound 42, 5-((3,4-dichlorobenzyl)amino)-N, 1-dimethyl-7-oxo-6,7-dihydro-1H-pyrazolo[4,3-d]pyrimidine-3-carboxamide]	> 64 µg/mL	> 64 µg/mL	>64 µg/mL	> 64 µg/mL	> 64 µg/mL	> 64 µg/mL	> 64 µg/mL	> 64 µg/mL		
CN(C)C(=O)c1nn(C)c2c(=O)[nH]c(NCc3ccc(Cl)c(Cl)c3)nc12 [Compound 43, 5-((3,4-Dichlorobenzyl)amino)-N,N, 1-trimethyl-7-oxo-6,7-dihydro-1H-pyrazolo[4,3-d]pyrimidine-3-carboxamide]	64 µg/mL (≈ 162 µM)	> 64 µg/mL	>64 µg/mL	> 64 µg/mL	> 64 µg/mL	> 64 µg/mL	64 µg/mL (≈ 162 µM)	> 64 µg/mL		

The remaining lines, values ahead:

MIC [1]	MIC [2]	MIC E. coli ATCC 25922 + 4 mM EDTA [2]	MIC [3]	MIC [4]	MIC [5]	MIC [6]	MIC [7]	MIC NRS 384 (MRSA) [3]	MIC E. faecium ATCC 700221 (VRE) [5]	SMILES
16 µg/mL (≈ 45.8 µM)	> 64 µg/mL	64 µg/mL		4 µg/mL (≈ 11.5 µM)		2 µg/mL (≈ 5.73 µM)	4 µg/mL (≈ 11.5 µM)	4/4	2/2	Cn1nc(C#N)c2nc(NCc3ccc(Cl)c(Cl)c3)[nH]c(=O)c21 [Compound 45, 5-((3,4-dichlorobenzyl)amino)-1-methyl-7-oxo-6,7-dihydro-1H-pyrazolo[4,3-d]pyrimidine-3-carbonitrile]
16 µg/mL (≈ 40.8 µM)	> 64 µg/mL	>64 µg/mL	8 µg/mL (≈ 20.4 µM)	16 µg/mL (≈ 40.8 µM)	8 µg/mL (≈ 20.4 µM)	4 µg/mL (≈ 10.2 µM)	4 µg/mL (≈ 10.2 µM)			Cn1nc(C2C=CCO2)c2nc(NCc3ccc(Cl)c(Cl)c3)[nH]c(=O)c21 (stereo not shown) [Compound 46, 5-((3,4-dichlorobenzyl)amino)-3-(2,5-dihydrofuran-2-yl)-1-methyl-1H-pyrazolo[4,3-d]pyrimidin-7(6H)-one]
32 µg/mL (≈ 81.2 µM)	> 64 µg/mL	>64 µg/mL	16 µg/mL (≈ 40.6 µM)	> 64 µg/mL	16 µg/mL (≈ 40.6 µM)	8 µg/mL (≈ 20.3 µM)	16 µg/mL (≈ 40.6 µM)			Cn1nc(C2CCCO2)c2nc(NCc3ccc(Cl)c(Cl)c3)[nH]c(=O)c21 (stereo not shown) [Compound 47, 5-((3,4-dichlorobenzyl)amino)-1-methyl-3-(tetrahydrofuran-2-yl)-1H-pyrazolo[4,3-d]pyrimidin-7(6H)-one]
4 µg/mL (≈ 10.9 µM)	> 64 µg/mL	>64 µg/mL	4 µg/mL (≈ 10.9 µM)	16 µg/mL (≈ 43.5 µM)	8 µg/mL (≈ 21.7 µM)	4 µg/mL (≈ 10.9 µM)	8 µg/mL (≈ 21.7 µM)			Cn1nc(CCO)c2nc(NCc3ccc(Cl)c(Cl)c3)[nH]c(=O)c21 [Compound 48, 5-((3,4-dichlorobenzyl)amino)-3-(2-hydroxyethyl)-1-methyl-1H-pyrazolo[4,3-d]pyrimidin-7(6H)-one]
